Earlier results as cited in US20030230530A1, “Process for the preparation of a combination of Famotidine Polymorphs A and B” (M/S. TONIRA PHARMA LIMITED, priority 2002, published 2003).

How the values were obtained:
[1] = background statement, comparison of Polymorph A and B
[2] = background statement, comparison of Polymorph A and B; remark: listed apart in the source

Row | SMILES | stability of the polymorph [1] | dissolution properties [2]
1 | N=C(N)Nc1nc(CSCCC(=N)NS(N)(=O)=O)cs1 [Polymorph B, N-Sulfamyl-3-(2-guanidinothiazole-4-yl-methylthio) proionamidine] | metastable | higher dissolution properties
2 | N=C(N)Nc1nc(CSCCC(=N)NS(N)(=O)=O)cs1 [Polymorph A, N-Sulfamyl-3-(2-guanidinothiazole-4-yl-methylthio) proionamidine] | more stable | low dissolution properties
